Measured values taken from the NIST ThermoML archive (doi:10.1021/je700190m).
Numbers after ± are expanded uncertainties.

Experiment: wn = mass fraction of the nth substance listed
Conditions: 310 K; 101.3 kPa; Liquid; Concentric cylinders viscometry; w1 = 0.1

OC[C@@H](O)[C@@H](O)[C@H](O)[C@@H](O)CO [D-sorbitol] + O
viscosity: 1.02 ± 0.21 mPa·s

OC[C@@H](O)[C@@H](O)[C@H](O)[C@H](O)CO [mannitol] + O
viscosity: 1.03 ± 0.21 mPa·s

O=C(CO)[C@@H](O)[C@H](O)[C@@H](CO)O[C@H]1O[C@H](CO)[C@@H](O)[C@H](O)[C@H]1O [leucrose] + O
viscosity: 1.05 ± 0.21 mPa·s

O.O.OC[C@H]1O[C@H](O[C@H]2O[C@H](CO)[C@@H](O)[C@H](O)[C@H]2O)[C@H](O)[C@@H](O)[C@@H]1O [D-(+)-trehalose dihydrate] + O
viscosity: 1.1 ± 0.22 mPa·s

OC[C@H]1O[C@@](CO)(O[C@H]2O[C@H](CO)[C@@H](O)[C@H](O)[C@H]2O)[C@@H](O)[C@@H]1O [D-sucrose] + O
viscosity: 1.06 ± 0.21 mPa·s

OC[C@@H](O)[C@@H](O[C@H]1O[C@H](CO)[C@@H](O)[C@H](O)[C@H]1O)[C@H](O)[C@@H](O)CO [4-O-α-D-glucopyranosyl-D-glucitol] + O
viscosity: 1.08 ± 0.22 mPa·s

O=C[C@H](O)[C@@H](O)[C@H](O)[C@H](O)CO [D-glucose] + O
viscosity: 1 ± 0.2 mPa·s

O.O.O.O.O.OC[C@H]1O[C@H](OC[C@H]2O[C@H](O[C@]3(CO)O[C@H](CO)[C@@H](O)[C@@H]3O)[C@H](O)[C@@H](O)[C@@H]2O)[C@H](O)[C@@H](O)[C@H]1O [D-raffinose, pentahydrate] + O
viscosity: 1.22 ± 0.25 mPa·s

O=C[C@H](O)[C@@H](O)[C@H](O[C@@H]1O[C@H](CO)[C@H](O)[C@H](O)[C@H]1O)[C@H](O)CO [4-O-β-D-galactopyranosyl-D-glucose] + O
viscosity: 1.16 ± 0.23 mPa·s

OC[C@@H](O)[C@H](O)[C@@H](O)CO [xylitol] + O
viscosity: 1.03 ± 0.21 mPa·s
